Reference: patent US7078163B2, “Process for reducing mineralization of tissue used in transplantation” (Medtronic, Inc., priority 2001, dated 2006)

Target: T1, Chymotrypsin (Bos taurus, UniProt P00766)
T1 construct: purchased Sigma C 4129; host or cells: bovine pancreas (tissue-derived)
Assay: AZOCOLL enzyme activity assay of chymotrypsin after exposure to reducing agent
Assay type: biochemical, bovine
Settings: chymotrypsin exposed to DTT 10 mM in presence of SDS 1% w:v, 2 hours, 37-40° C., desalted; AZOCOLL 37° C. 20 minutes; mean of 3; positive control 0.523, negative control 0.003
Experimental: Stock trypsin and chymotrypsin solutions were solubilized from dry powder supplied by the manufacturer in PBS, pH 7.4, at room temperature. Protein concentrations were set at 1 mg/ml. Protein solutions were sterile filtered through a 0.45 μm syringe filter to eliminate potential bacterial contamination.
Working solution of the protein was prepared by dilution from concentrated stock to a final concentration of 100 μg/ml.
The protein was incubated with the agents for 2 hours. […] The protein was passed over a Sephadex G-25 column, as described above, to prepare it for the assay. After the protein was eluted from the column it was used immediately in the assay.
Each of the proteins that were exposed to an agent was assessed for its activity by incubating it with a collagen substrate with an azo containing dye. AZOCOLL was suspended in PBS at a concentration of 1 mg/ml.
For the assay, 1 ml of protein was mixed with 1 ml of AZOCOLL substrate. The reaction was performed at 37° C. for 20 minutes in Ependorff microfuge tubes. […] The aqueous solution was removed from the centrifuge tubes and the absorbance of the solution (containing soluble azo dye) was monitored at 520 nm. […]
All experiments were run in triplicate. Data reported is the mean of the 3 readings. […]

O[C@@H](CS)[C@@H](O)CS [reducing agent, dithiothreatol]
Abs. @ 520 nm: 0.031
